Assay results reported in patent US20240246913A1, “2-CARBOXYL-INDOLE INHIBITORS OF METALLO-BETA-LACTAMASES” (Oxford University Innovation Limited, priority 2021, published 2024).

What was measured:
IMP-1 = IMP-1 (Serratia marcescens, UniProt P52699); assay: MBL inhibition, FC-5 fluorescence assay, IMP-1; type: biochemical; conditions: FC-5 cephalosporin substrate, fluorescence; ranges of obtained pIC50; read-out: pIC50 IMP-1 (converted)
Summary of the method: (§1)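 Fluorescence read-out (380 nm excitation, 460 nm emission) tracks fluorophore liberated when each enzyme breaks down cephalosporin substrate FC-5. Initial rates across inhibitor concentrations, each run in quadruplicate on the plate, give normalized curves fitted with a variable Hill slope.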

[1] = Plasma protein binding, equilibrium dialysis, human plasma; type: in vitro ADME; conditions: pH 7.4, equilibrium dialysis (RED) 4 hours at 37° C., read-out: Plasma protein binding, fu, Human
Summary of the method: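 Compound at 10 μM in plasma dialysed against 67 mM phosphate buffer pH 7.4 for 4 h at 37° C. in RED device; unbound fraction from buffer and plasma levels by LC-MS/MS. Plasma stability checked in parallel over 4 h at 37° C. versus frozen control.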

VIM-1 = VIM-1 (Pseudomonas aeruginosa, UniProt A0A0F7KYQ8); assay: MBL inhibition, FC-5 fluorescence assay, VIM-1; type: biochemical; conditions: FC-5 cephalosporin substrate, ranges of obtained pIC50, read-out: pIC50 VIM-1 (converted)
Summary of the method: as §1

[2] = Metabolic stability in mouse hepatocytes; type: in vitro ADME; conditions: cryopreserved mouse hepatocytes, 1 μM compound, 37° C., up to 90 min, read-out: Metabolic stability in hepatocytes, in vitro t1/2, Mouse
Procedure: (§2) Metabolic stability assays were performed in cryopreserved human and mouse hepatocytes. The hepatocytes were thawed and added to “Thawing media”, and centrifuged to pellet the hepatocytes. The cell pellet was taken up in Williams medium E (Invitrogen A1217601), the number of cells was calculated and adjusted to 1.0×10^6 cells/mi. The incubation was carried out on a heater-shaker at […], in a 24-well Picoplate (round bottom, PerkinElmer), using an incubation volume of […]. Thus, to obtain a final compound concentration of 1 μM, 0.7 μl of the 1 mM compound stock solution was pipetted to the wells of the plate. Reaction was initiated by adding 700 μl of cell suspension. Samples were incubated at 37° C. for […] and a zero sample was taken, i.e. 100 μl sample was removed to a 96-well plate and the reaction was quenched by adding 100 μl of 100% MeCN containing 50 nM Warfarin as an internal control. Consecutive samples were taken at time-points 5 min, 15 min, 30 min, 60 min, and 90 min. After finishing the experiment, samples were centrifuged at 3000 rpm for 15 min and before analysis by LC-MS/MS (Waters Corp, Milford, MA, USA).

NDM-1 = NDM-1 (Klebsiella pneumoniae, UniProt C7C422); assay: MBL inhibition, FC-5 fluorescence assay, NDM-1; type: biochemical; conditions: FC-5 cephalosporin substrate, fluorescence; ranges of obtained pIC50; read-out: pIC50 NDM-1 (converted)
NDM-1, sequence (C7C422 29-270, looked up, species assumed): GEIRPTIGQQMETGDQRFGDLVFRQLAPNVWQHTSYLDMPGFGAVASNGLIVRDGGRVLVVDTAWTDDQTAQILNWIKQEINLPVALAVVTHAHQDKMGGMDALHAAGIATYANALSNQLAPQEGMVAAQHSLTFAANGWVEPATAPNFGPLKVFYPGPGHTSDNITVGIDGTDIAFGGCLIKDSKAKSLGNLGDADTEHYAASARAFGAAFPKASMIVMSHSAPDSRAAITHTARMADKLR
Summary of the method: as §1

[3] = Plasma protein binding, equilibrium dialysis, mouse plasma; type: in vitro ADME; conditions: pH 7.4, equilibrium dialysis (RED) 4 hours at 37° C., read-out: Plasma protein binding, fu, Mouse
Procedure: The fraction of unbound compound (fu) in plasma from human or other animal species was determined by equilibrium dialysis at 37° C. for 4 hours using the Rapid Equilibrium Dialysis (RED) device (ThermoFisher Scientific). The test compound at a concentration of 10 μM was added to plasma and dialyzed against isotonic phosphate buffer (67 mM, pH 7.4) over 4 hours at 37° C. After dialysis, compound concentrations in buffer and plasma were quantified by LC-MS/MS. In parallel the stability of the compound in plasma was determined by incubating drug-spiked plasma (10 μM) at 37° C. for 4 hours, meanwhile the control plasma sample was kept in the freezer. The concentration of the compound in both samples was quantified by LC-MS/MS (Waters Corp, Milford, MA, USA).

VIM-2 = VIM-2 (Escherichia coli, UniProt Q5U7L7); assay: MBL inhibition, FC-5 fluorescence assay, VIM-2; type: biochemical; conditions: FC-5 cephalosporin substrate, ranges of obtained pIC50, read-out: pIC50 VIM-2 (converted)
Summary of the method: as §1

[4] = Metabolic stability in human hepatocytes; type: in vitro ADME; conditions: cryopreserved human hepatocytes, 1 μM compound, 37° C., up to 90 min, read-out: Metabolic stability in hepatocytes, in vitro t1/2, Human
Procedure: as §2

Escherichia coli NDM-7 = assay: Antibiotic susceptibility testing (MIC), EC NDM-7; type: cell-based; conditions: agar or broth dilution (CLSI/EUCAST)
Procedure: (§3) Antibiotic susceptibility testing was performed using the agar or broth dilution method, in line with the Clinical and Laboratory Standards Institute (CLSI) and European Committee on Antimicrobial Susceptibility Testing (EUCAST) requirements.

Escherichia coli NDM-1 = assay: Antibiotic susceptibility testing (MIC), EC NDM-1; type: cell-based; conditions: agar or broth dilution (CLSI/EUCAST)
Procedure: as §3

[5] = test system: Acinetobacter baumannii NDM-1; assay: Antibiotic susceptibility testing (MIC), AB NDM-1; type: cell-based; conditions: agar or broth dilution (CLSI/EUCAST)
Procedure: as §3

IMP-1, sequence (P52699 19-246, looked up, species assumed): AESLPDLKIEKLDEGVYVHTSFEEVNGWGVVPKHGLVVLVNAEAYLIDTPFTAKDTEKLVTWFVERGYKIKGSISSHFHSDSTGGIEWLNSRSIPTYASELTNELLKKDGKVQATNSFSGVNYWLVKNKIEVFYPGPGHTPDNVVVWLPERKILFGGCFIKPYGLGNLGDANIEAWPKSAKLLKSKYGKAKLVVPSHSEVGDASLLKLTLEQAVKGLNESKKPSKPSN

CC(OCc1ccc(CN)cc1)c1cccc2c(-c3ccc(NS(C)(=O)=O)c(C#N)c3)c(C(=O)O)[nH]c12 (centres unmarked) [IC-86, 7-(1-((4-(Aminomethyl)benzyl)oxy)ethyl)-3-(3-cyano-4-(methylsulfonamido)phenyl)-1H-indole-2-carboxylic acid]
IC50 (IMP-1): > 10 nM
fraction unbound at 4 h, 10 μM [1]: 0.005 to 0.05
IC50 (VIM-1): > 10 nM
half-life at 1 μM [2]: < 150 min
IC50 (NDM-1): < 0.1 nM
fraction unbound at 4 h, 10 μM [3]: 0.05 to 0.25
IC50 (VIM-2): 1 to 10 nM
half-life at 1 μM [4]: > 400 min

CC(c1noc(CCCN)n1)c1cccc2c(-c3ccc(CS(C)(=O)=O)c(F)c3)c(C(=O)O)[nH]c12 (centres unmarked) [IC-62, 7-[1-[5-(3-Aminopropyl)-1,2,4-oxadiazol-3-yl]ethyl]-3-[3-fluoro-4-(methylsulfonylmethyl)phenyl]-1H-indole-2-carboxylic acid]
IC50 (IMP-1): 1 to 10 nM
fraction unbound at 4 h, 10 μM [1]: 0.05 to 0.25
IC50 (VIM-1): 0.1 to 1 nM
half-life at 1 μM [2]: 150 to 400 min
MIC values EC NDM-7 (Escherichia coli NDM-7): A (A = MIC values ≤ 1)
IC50 (NDM-1): < 0.1 nM
MIC values EC NDM-1 (Escherichia coli NDM-1): A (A = MIC values ≤ 1)
fraction unbound at 4 h, 10 μM [3]: 0.005 to 0.05
MIC values AB NDM-1 [5]: A (A = MIC values ≤ 1)
IC50 (VIM-2): 0.1 to 1 nM
half-life at 1 μM [4]: > 400 min

C[C@@H](c1cccc2c(-c3ccc(CS(C)(=O)=O)c(F)c3)c(C(=O)O)[nH]c12)n1cc(CN2CC(C)(N)C2)oc1=O [IC-68, (S)-7-(1-(5-((3-amino-3-methylazetidin-1-yl)methyl)-2-oxooxazol-3(2H)-yl)ethyl)-3-(3-fluoro-4-((methylsulfonyl)methyl)phenyl)-1H-indole-2-carboxylic acid]
IC50 (IMP-1): > 10 nM
IC50 (VIM-1): 1 to 10 nM
half-life at 1 μM [2]: > 400 min
MIC values EC NDM-7 (Escherichia coli NDM-7): A (A = MIC values ≤ 1)
IC50 (NDM-1): < 0.1 nM
MIC values EC NDM-1 (Escherichia coli NDM-1): A (A = MIC values ≤ 1)
MIC values AB NDM-1 [5]: B (B MIC values 2 ÷ 8)
IC50 (VIM-2): 0.1 to 1 nM
half-life at 1 μM [4]: > 400 min

C[C@@H](c1cccc2c(-c3ccc(CS(C)(=O)=O)c(F)c3)c(C(=O)O)[nH]c12)n1cc(CN2CC(N)C2)oc1=O [IC-67, (S)-7-(1-(5-((3-aminoazetidin-1-yl)methyl)-2-oxooxazol-3(2H)-yl)ethyl)-3-(3-fluoro-4-((methylsulfonyl)methyl)phenyl)-1H-indole-2-carboxylic acid]
IC50 (IMP-1): > 10 nM
fraction unbound at 4 h, 10 μM [1]: 0.05 to 0.25
IC50 (VIM-1): 1 to 10 nM
half-life at 1 μM [2]: > 400 min
MIC values EC NDM-7 (Escherichia coli NDM-7): A (A = MIC values ≤ 1)
IC50 (NDM-1): < 0.1 nM
MIC values EC NDM-1 (Escherichia coli NDM-1): A (A = MIC values ≤ 1)
fraction unbound at 4 h, 10 μM [3]: 0.005 to 0.05
MIC values AB NDM-1 [5]: B (B MIC values 2 ÷ 8)
IC50 (VIM-2): 0.1 to 1 nM
half-life at 1 μM [4]: > 400 min

C[C@@H](OCc1ccc(CN)cc1)c1cccc2c(-c3ccc(CS(C)(=O)=O)c(Cl)c3)c(C(=O)O)[nH]c12 (single isomer, unassigned) [IC-88]
IC50 (IMP-1): 1 to 10 nM
fraction unbound at 4 h, 10 μM [1]: 0.005 to 0.05
IC50 (VIM-1): > 10 nM
half-life at 1 μM [2]: < 150 min
IC50 (NDM-1): 0.1 to 1 nM
fraction unbound at 4 h, 10 μM [3]: < 0.005
IC50 (VIM-2): > 10 nM
half-life at 1 μM [4]: > 400 min

CC(Oc1ccc(CN)cc1)c1cccc2c(-c3ccc(CS(C)(=O)=O)c(F)c3)c(C(=O)O)[nH]c12 (centres unmarked) [IC-92, 7-(1-(4-(Ammoniomethyl)phenoxy)ethyl)-3-(3-fluoro-4-((methylsulfonyl)methyl)phenyl)-1H-indole-2-carboxylate]
IC50 (IMP-1): 1 to 10 nM
fraction unbound at 4 h, 10 μM [1]: 0.05 to 0.25
IC50 (VIM-1): 1 to 10 nM
half-life at 1 μM [2]: 150 to 400 min
IC50 (NDM-1): 1 to 10 nM
fraction unbound at 4 h, 10 μM [3]: 0.005 to 0.05
IC50 (VIM-2): 1 to 10 nM
half-life at 1 μM [4]: > 400 min

C[C@H](OCc1ccc(CN)cc1)c1cccc2c(-c3ccc(CS(C)(=O)=O)c(Cl)c3)c(C(=O)O)[nH]c12 (single isomer, unassigned) [IC-87]
IC50 (IMP-1): 1 to 10 nM
fraction unbound at 4 h, 10 μM [1]: 0.005 to 0.05
IC50 (VIM-1): 1 to 10 nM
half-life at 1 μM [2]: < 150 min
IC50 (NDM-1): < 0.1 nM
fraction unbound at 4 h, 10 μM [3]: 0.05 to 0.25
IC50 (VIM-2): 0.1 to 1 nM
half-life at 1 μM [4]: > 400 min

CC(NC(=O)[C@H]1CC[C@H](CN)CC1)c1cccc2c(-c3ccc(CS(C)(=O)=O)c(F)c3)c(C(=O)O)[nH]c12 (mixture of isomers) [IC-99, 7-[1-[[4-(Aminomethyl)cyclohexanecarbonyl]amino]ethyl]-3-[3-fluoro-4-(methylsulfonylmethyl)phenyl]-1H-indole-2-carboxylic acid]
IC50 (IMP-1): > 10 nM
fraction unbound at 4 h, 10 μM [1]: 0.05 to 0.25
IC50 (VIM-1): > 10 nM
half-life at 1 μM [2]: > 400 min
IC50 (NDM-1): 1 to 10 nM
fraction unbound at 4 h, 10 μM [3]: 0.05 to 0.25
IC50 (VIM-2): < 0.1 nM
half-life at 1 μM [4]: > 400 min

CC(OC(=O)N1CCC(CN)CC1)c1cccc2c(-c3ccc(CS(C)(=O)=O)c(F)c3)c(C(=O)O)[nH]c12 (centres unmarked) [IC-95, 7-(1-((4-(Aminomethyl)piperidine-1-carbonyl)oxy)ethyl)-3-(3-fluoro-4-((methylsulfonyl)methyl)phenyl)-1H-indole-2-carboxylic acid]
IC50 (IMP-1): > 10 nM
fraction unbound at 4 h, 10 μM [1]: 0.05 to 0.25
IC50 (VIM-1): > 10 nM
half-life at 1 μM [2]: > 400 min
IC50 (NDM-1): 0.1 to 1 nM
fraction unbound at 4 h, 10 μM [3]: 0.005 to 0.05
IC50 (VIM-2): 1 to 10 nM
half-life at 1 μM [4]: > 400 min

CC(c1cccc2c(-c3ccc(CS(C)(=O)=O)c(F)c3)c(C(=O)O)[nH]c12)N(C)C(=O)c1ccc(CN)cc1 (centres unmarked) [IC-97, 7-(1-(4-(Aminomethyl)-N-methylbenzamido)ethyl)-3-(3-fluoro-4-((methylsulfonyl)methyl)phenyl)-1H-indole-2-carboxylic acid]
IC50 (IMP-1): > 10 nM
fraction unbound at 4 h, 10 μM [1]: 0.05 to 0.25
IC50 (VIM-1): > 10 nM
half-life at 1 μM [2]: < 150 min
IC50 (NDM-1): 1 to 10 nM
fraction unbound at 4 h, 10 μM [3]: 0.05 to 0.25
IC50 (VIM-2): 1 to 10 nM
half-life at 1 μM [4]: > 400 min

CC(OCC1CCNCC1)c1cccc2c(-c3ccc(CS(C)(=O)=O)c(F)c3)c(C(=O)O)[nH]c12 (centres unmarked) [IC-89, 3-(3-Fluoro-4-((methylsulfonyl)methyl)phenyl)-7-(1-(piperidin-4-ylmethoxy)ethyl)-1H-indole-2-carboxylic acid]
IC50 (IMP-1): > 10 nM
fraction unbound at 4 h, 10 μM [1]: 0.05 to 0.25
IC50 (VIM-1): 1 to 10 nM
half-life at 1 μM [2]: > 400 min
IC50 (NDM-1): 0.1 to 1 nM
fraction unbound at 4 h, 10 μM [3]: 0.05 to 0.25
IC50 (VIM-2): 1 to 10 nM
half-life at 1 μM [4]: > 400 min

C[C@@H](c1cccc2c(-c3ccc(CS(C)(=N)=O)c(F)c3)c(C(=O)O)[nH]c12)N1C[C@]2(C[C@@H](CN)C2)OC1=O (stereo partly drawn) [IC-19, 7-((1S)-1-(2-(aminomethyl)-6-oxo-5-oxa-7-azaspiro[3.4]octan-7-yl)ethyl)-3-(3-fluoro-4-((S-methylsulfonimidoyl)methyl)phenyl)-1H-indole-2-carboxylic acid]
IC50 (IMP-1): > 10 nM
fraction unbound at 4 h, 10 μM [1]: > 0.25
IC50 (VIM-1): 0.1 to 1 nM
MIC values EC NDM-7 (Escherichia coli NDM-7): A (A = MIC values ≤ 1)
IC50 (NDM-1): < 0.1 nM
MIC values EC NDM-1 (Escherichia coli NDM-1): B (B MIC values 2 ÷ 8)
fraction unbound at 4 h, 10 μM [3]: 0.05 to 0.25
MIC values AB NDM-1 [5]: B (B MIC values 2 ÷ 8)
IC50 (VIM-2): 0.1 to 1 nM
